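The compound was tested at five concentrations on cells cultured in 96-well plates, with a 48-hour exposure period. GI50 is the concentration that inhibits growth by half. TGI denotes the concentration required for complete inhibition of growth.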
What was measured:
Assay in all cases: NCI tumour cell line growth inhibition, 48 h
BT-549 breast = tested on: BT-549 breast
MALME-3M melanoma = tested on: MALME-3M melanoma
MDA-MB-435 = tested on: MDA-MB-435
MDA-N = tested on: MDA-N
MOLT-4 leukemia = tested on: MOLT-4 leukemia
OVCAR-8 ovarian = tested on: OVCAR-8 ovarian
SK-MEL-2 melanoma = tested on: SK-MEL-2 melanoma
SK-OV-3 ovarian = tested on: SK-OV-3 ovarian
SW-620 colon = tested on: SW-620 colon
CCRF-CEM leukemia = tested on: CCRF-CEM leukemia

| SMILES | TGI (BT-549 breast) [µM] | TGI (MALME-3M melanoma) [µM] | TGI (MDA-MB-435) [µM] | TGI (MDA-N) [µM] | TGI (MOLT-4 leukemia) [µM] | TGI (OVCAR-8 ovarian) [µM] | TGI (SK-MEL-2 melanoma) [µM] | TGI (SK-OV-3 ovarian) [µM] | TGI (SW-620 colon) [µM] | TGI (CCRF-CEM leukemia) [µM] | GI50 (BT-549 breast) [µM] | GI50 (MALME-3M melanoma) [µM] | GI50 (OVCAR-8 ovarian) [µM] | GI50 (SK-MEL-2 melanoma) [µM] | GI50 (SK-OV-3 ovarian) [µM] |
| --- | --- | --- | --- | --- | --- | --- | --- | --- | --- | --- | --- | --- | --- | --- | --- |
| NC(CC1=CS(=O)(=O)c2ccc(Cl)cc21)C(=O)O (stereo unspecified) | > 100 | > 100 | > 100 | > 100 | > 100 | > 100 | > 100 | > 100 | > 100 | – | – | – | – | – | – |
| CCOC(=O)C1(C(=O)OCC)COS(=O)OC1 | – | – | > 100 | > 100 | 56.4 | > 100 | – | > 100 | 36.1 | > 100 | – | – | – | – | – |
| CC(=O)Oc1cc(C(F)(F)F)ccc1C(=O)OC1(C)OC(=O)c2ccc(C(F)(F)F)cc2O1 (stereo unspecified) | > 100 | > 100 | > 100 | > 100 | > 100 | > 100 | – | > 100 | > 100 | > 100 | – | – | – | – | – |
| N/C(=N\S(=O)(=O)c1c(C(F)(F)F)cccc1C(F)(F)F)Nc1ccc(Cl)cc1 | 96 | 58.4 | – | > 100 | > 100 | 78 | 29.3 | > 100 | > 100 | – | – | – | – | – | – |
| Oc1[nH]c2ccc(Br)cc2c1N=NC(=S)Nc1ccc(F)cc1 | 2.7 | 23.8 | 13.6 | 14.4 | 29.6 | 19.9 | 25.9 | 33.4 | 40.2 | – | – | – | – | – | – |
| CC[n+]1[b-](C(C)(C)C)n(/N=C/C(C)(C)C)[b-](C(C)(C)C)[n+]1CC | > 100 | > 100 | > 100 | > 100 | > 100 | > 100 | > 100 | – | > 100 | > 100 | – | – | – | – | – |
| O=[N+]([O-])c1ccc(/C=C/c2cc(-c3ccccc3)nc3ccc4ccccc4c23)cc1 | – | > 100 | > 100 | > 100 | > 100 | > 100 | – | > 100 | > 100 | > 100 | – | – | – | – | – |
| CC(=O)O/N=C/c1c2ccccc2cc2ccccc12 | – | > 100 | > 100 | – | > 100 | 50.3 | – | 69.6 | > 100 | > 100 | – | – | – | – | – |
| c1ccc2c(c1)c1c(n2CCOCCN2CCOCC2)CCCC1 | – | 29 | – | > 100 | 69.8 | > 100 | 52.4 | > 100 | > 100 | 69.4 | – | – | – | – | – |
| C=Cc1ccc(C)[n+](C[Si](C)(C)O[Si](C)(C)C[n+]2cc(C=C)ccc2C)c1 | – | > 100 | – | – | > 100 | > 100 | > 100 | > 100 | > 100 | > 100 | – | – | – | – | – |
| CC(=O)OCC1OC(n2cc(I)c(=O)[nH]c2=O)C(OC(C)=O)C(OC(C)=O)C1OC(C)=O (stereo unspecified) | – | > 100 | – | – | > 100 | > 100 | > 100 | > 100 | > 100 | > 100 | – | – | – | – | – |
| CSC(=Nc1ccccc1)N(c1ccccc1)c1nc(=[N+](C)C)ss1 | – | 22.6 | – | – | 7.54 | 6.19 | 11.7 | 38.5 | 3.27 | 4.48 | – | – | – | – | – |
| C(=Nc1ccc(-c2nc3ccccc3o2)cc1)c1ccco1 | > 100 | > 100 | > 100 | > 100 | > 100 | > 100 | > 100 | – | > 100 | – | – | – | – | – | – |
| CC(C(=O)N1C(=O)N(C(=O)C(C)C(O)c2ccccc2)C2CCCCC21)C(O)c1ccccc1 (stereo unspecified) | – | > 100 | – | – | 87.1 | > 100 | > 100 | – | > 100 | > 100 | – | – | – | – | – |
| COC(=O)c1cc2c(cc1CC1Cc3cc4c(cc3C1)CCC4)CCC2 | – | > 100 | > 100 | > 100 | 36.9 | > 100 | 54 | > 100 | > 100 | 45.3 | – | – | – | – | – |
| N=C(N)c1ccc(-c2ccc(-c3cccs3)s2)cc1 | 14.5 | 3.23 | – | – | – | 4.79 | 32 | 9.64 | – | – | 3.77 | 1.69 | 1.79 | 13.4 | 4.15 |
| O=c1ccn(C2OC(CO)C(P(=O)(O)O)C2O)c(=O)[nH]1 (stereo unspecified) | > 100 | > 100 | – | > 100 | > 100 | > 100 | > 100 | – | > 100 | > 100 | – | – | – | – | – |
| O=C1NCCS(=O)(=O)N[C@@H](CC2=CC=CCC2)C(=O)N2CCCC12 (stereo partly specified) | – | > 100 | – | – | > 100 | > 100 | > 100 | > 100 | > 100 | > 100 | – | – | – | – | – |
| NNC1=N/C(=C\c2ccco2)C(Cl)=N1 | – | > 100 | > 100 | > 100 | 34.9 | > 100 | > 100 | > 100 | > 100 | > 100 | – | – | – | – | – |
| CCN1CCCC(NCc2c3ccccc3c(CNC3CCCN(CC)C3)c3ccccc23)C1 (stereo unspecified) | – | 40.9 | – | – | 14.8 | > 74.4 | 11.7 | 36.7 | 29.4 | 41.4 | – | – | – | – | – |
| CC(C)=CCC/C(C)=C/COC(C)(C)C1=CCC(C)CC1 (stereo unspecified) (tested in a mixture with another compound) | > 100 | > 100 | > 100 | > 100 | 36.2 | > 100 | – | > 100 | > 100 | – | – | – | – | – | – |
| Cn1ccnc1C(O)(c1nccn1C)c1nccn1C | – | > 100 | – | – | – | > 100 | > 100 | – | > 100 | – | – | – | – | – | – |
| Nc1nc(N)c(N=O)c(Nc2ccc(Br)cc2)n1 | – | 44.6 | – | – | – | > 100 | 49.6 | > 100 | > 100 | > 100 | – | – | – | – | – |
| CC(=O)O[C@H]1C(=O)[C@@]2(C)[C@H]([C@H](OC(=O)c3ccc(F)cc3)[C@]3(O)C[C@H](OC(=O)[C@H](O)[C@@H](NC(=O)c4ccccc4)c4ccccc4)C(C)=C1C3(C)C)[C@]1(OC(C)=O)CO[C@@H]1C[C@@H]2O | > 25 | > 25 | 0.0049 | 0.00496 | 2.6 | – | 9.73 | – | > 25 | – | – | – | – | – | – |
| O=C(NC(COC(=O)C(Cc1ccccc1)NC(=O)c1ccccc1)Cc1ccccc1)c1ccccc1 (stereo unspecified) | – | > 50 | > 50 | – | > 50 | > 50 | > 50 | > 50 | > 50 | – | – | – | – | – | – |
